According to paper PMC6345595 (American journal of clinical oncology, 2019):

Assays:
[1] = Plasma pharmacokinetics of dovitinib, gemcitabine and capecitabine by LC/MS/MS; type: in vivo, human; conditions: for half-life: human, oral, 300 mg, median half-life (T1/2), dovitinib 300 mg
FGF23 = experiment: Plasma FGF23 sandwich ELISA; type: in vivo, human; conditions: out of 5 patients with paired samples; during the first cycle; dovitinib 300 mg daily 5 days on and 2 days off with gemcitabine and capecitabine
VEGF = experiment: Plasma VEGF Quantikine ELISA; type: in vivo, human; conditions: 5 patients, baseline vs after 19 days of dovitinib 300 mg
CYP 1A1/2 = conditions: cited from earlier work
[2] = biological target: fibroblast growth factor receptors (FGFRs); conditions: read-out: IC50 against FGFRs; cited from earlier work
basic FGF (bFGF) = experiment: Plasma bFGF Quantikine ELISA; type: in vivo, human; conditions: 5 patients, baseline vs after 19 days of dovitinib 300 mg
[3] = human, in vivo
[4] = AUC 0–8 hours, Day 1, capecitabine 1300 mg/m^2 total daily oral dose divided twice a day, concurrently with dovitinib 300 mg and gemcitabine, N=7
[5] = Day 1, capecitabine 1300 mg/m^2 total daily oral dose divided twice a day, concurrently with dovitinib 300 mg and gemcitabine, plasma, N=5
[6] = Day 1, capecitabine 1300 mg/m^2 total daily oral dose divided twice a day, concurrently with dovitinib 300 mg and gemcitabine, plasma, N=7
[7] = AUC 0–7.5 hours, Day 1, gemcitabine 1000 mg/m^2 intravenously, concurrently with dovitinib 300 mg and capecitabine, N=7

**Q.** What does the source list for `CCCCCOC(=O)Nc1nc(=O)n([C@@H]2O[C@H](C)[C@@H](O)[C@H]2O)cc1F` [capecitabine]?
**A.** AUC Max [1, 4]: 14439 ng·h/mL; AUC Min [1, 4]: 488 ng·h/mL; T1/2 Max [1, 5]: 4.07 h; T1/2 Min [1, 5]: 0.68 h; Cmax Max [1, 6]: 30300 ng/mL; Cmax Min [1, 6]: 98.8 ng/mL

**Q.** What does the source list for `CN1CCN(c2ccc3nc(-c4c(N)c5c(F)cccc5[nH]c4=O)[nH]c3c2)CC1` [dovitinib]?
**A.** patients with increased plasma FGF23 level (FGF23): 4 patients; changes of VEGF plasma level (VEGF): no observable trend; metabolizing enzymes (CYP 1A1/2): mainly metabolized by CYP 1A1/2 and flavin-containing monooxygenase; IC50 [2]: < 10 nM; changes of bFGF plasma level (basic FGF (bFGF)): no observable trend; patients with dose limiting toxicity (grade 3 colitis) ([3]; 1 cycle): 1; recommended dose for expansion / RP2D ([3]; po, 21 day): 300 mg; difference in dovitinib level between Day1 and 19 (autoinduction) ([1]; 300 mg daily dose on 5 days on and 2 days off schedule): did not observe significant difference; accumulation following 3 weeks of dosing ([1]; dovitinib 300 mg dose, Day 1 vs Day 19 Cmax and AUC): slight accumulation; half-life ([1]; plasma, Day 1): ~15 h; half-life ([1]; plasma, Day 19): ~13 h

**Q.** With `Nc1ccn([C@@H]2O[C@H](CO)[C@@H](O)C2(F)F)c(=O)n1` [gemcitabine] as the molecule, how does the “AUC Max” value [1, 7] read?
**A.** 12222 ng·h/mL

**Q.** And the “AUC Min” value [1, 7]?
**A.** 6370 ng·h/mL
